The target of assay [1] is T1, immobilized peptide fragment corresponding to the region 1-16 of the amyloid-β peptide (Homo sapiens, UniProt P05067).
T1 construct: N-terminal acetyl cap (Ac); C-terminal amide cap (NH2)
The experiment in a line: SPR binding (BIACORE T100), Example 3, in the absence of zinc. The note with it: for Kd: BIACORE T100, no zinc, at least 99% L isomers, read-out: dissociation constant Kd (Example 3). The text has this:
The binding tests described in Example 1 were reproduced, with the same materials, reactives and procedures except for the following significant differences: • the BIACORE apparatus applied was the BIACORE T100 apparatus. This BIACORE T100 apparatus produces more accurate results than the BIACORE 3000 because it includes a degasification system upon injecting the analyte on the sensor and because the method for detecting immobilized ligand/analyte intermolecular complexes on the CM5 chip is more accurate. • the tetrapeptides according to the invention used were purified to at least 99% in L isomers according to HPLC data, the D isomers were prevented from forming and/or removed during the synthesis. In Example 1, the tetrapeptides only included 98% of L isomers. • the concentrations of the tetrapeptides according to the invention applied were 50; 100; 200; 500; 1,000; 1,500 and 2,000 μM. • these experiments were conducted in the absence of zinc. • the surface of the CM5 chips provided a surface which gave a variation of response units (RU) of about 1,023 arbitrary units, with a control liquid sample.
the dissociation constant Kd being given by the formula Kd=koff/kon.

The target in the next assay is T2, Aβ peptide (1-40) (Homo sapiens, UniProt P05067).
T2 construct: The complete β peptide 1-40 was used, marked by a fluorescent marker; purchased QUALITY CONTROLLED BIOCHEMICALS Inc. USA
T2 sequence (P05067 672-711 limits assumed): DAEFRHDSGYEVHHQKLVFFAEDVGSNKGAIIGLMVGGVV
The experiment in a line: Aβ aggregation on SYNTHALOID SCREENING PLATE kit (fluorescence). Type of assay: biochemical. The note with it: for IC50: 100 nM marked Aβ (1-40), 3 hours at room temperature, buffer with physiological Zn(II), read-out: inhibitory concentration IC50 of aggregation of the Aβ peptide; for effect of prolonged incubation on amyloid aggregates: incubation for at least 1 hour, 20, 40, 80, 100 and 150 μM. Here is the method: They were left to incubate for 3 hours at room temperature in the wells.
In certain wells, tetrapeptides AC-HAEE-NH2 and Ac-RADD-NH2 according to the invention, were introduced at different concentrations depending on the wells (0, 5, 10, 20, 40, 80, 100 and 150 μM), for checking the effect of tetrapeptides according to the invention on the aggregation phenomenon of Aβ peptides.
To do this, at the end of the incubation, the unbound proteins in the wells were removed with three washings, by using the buffer solution above. The amount of bound proteins in the form of aggregates, bound to the well, was measured by measuring the fluorescence intensity.

Assay [2] concerns the target T3, immobilized peptide fragment corresponding to the 1-16 region of the amyloid-β peptide (Homo sapiens, UniProt P05067).
T3 construct: N-terminal acetyl cap (Ac); C-terminal amide cap (NH2)
As to the kind of experiment: SPR binding (BIACORE 3000), Examples 1 and 2.
From the text: With this analysis, it is possible to calculate the dissociation constant Kd of the interaction of the peptide with the immobilized ligand, it being understood that the value of Kd is all the more smaller since the interaction with the ligand and therefore the stability of the formed interaction complex are high.
More specifically, in an SPR spectroscopy system, for example applying a biosensor from BIACORE, after immobilization of the ligand at the surface of a sensor of the chip type, in this case here the amyloid-β fragment, the analyte reagent is injected on said surface at a constant flow rate through systems of microfluidic channels. Polarized light emitted by a light source is reflected on the gold-covered surface of the chip, and then detected by a diode reader. According to the binding of the ligand and of the analyte molecule, the intensity of the reflected light is different. The variation in the response of the spectrometer (RU=Response unit) allows calculation of the dissociation constant of the interaction.
The chips of the biosensor came from GE Healthcare (USA). The SPR spectroscopy experiments were conducted with the BIACORE 3000 apparatus. The reagents for immobilizing the amyloid-β peptide fragment (EDC, NHS, PDEA and cysteine) were bought from GE Healthcare (USA). The buffer used for immobilizing the peptide ligand by formation of thiol bonds was 10 mM sodium acetate at pH 4.5. The regeneration buffer was an HBS buffer containing a medium with 10 mM HEPES and 3 mM EDTA, 0.005% of surfactant P20 and 150 mM NaCl at pH 7.4. […] All the buffers were filtered before use.
This peptide with 21 amino acids contains the 16 amino acids of the N-terminal end of the binding domain of the amyloid-β, i.e. [sequence] (SEQ. ID. NO.25), followed by 4 glycine amino acids and a cysteine C-Terminal end. Cysteine is necessary for immobilizing the ligand on the surface of the chip through a thiol bond according to the procedure of the supplier. 4 glycine amino acids therefore form a binding tetrapeptide (“linker”) between the chip and the ligand. Further, the thereby immobilized ligand has enough flexibility relatively to the surface, so as to validly mimic the interaction conditions between the tetrapeptide reagent and the ligand. This ligand was bound onto a CM5 chip of the biosensor, by following the standard procedure through a thiol bond under conditions described in the handbook of the sensor provided by the supplier GE Healthcare (USA).
The flow rate applied in all the steps was 5 μl/min. The carboxymethyl dextran matrix was activated by injecting a 1:1 mixture of 1-ethyl-3(3-dimethylaminopropyl)-carbodiimide (EDC) and of N-hydroxysuccinimide (NHS), i.e. 30 μl of EDC at 400 mM and NHS at 100 mM, followed by an injection of 80 mM PDEA (2-(2-pyridinyldithio)-ethane-amine) in solution in 0.1 M sodium borate at a pH of 8.5. The peptide ligand in solution in a sodium acetate buffer in an amount of 0.05 mg/ml was then injected. […] The control liquid was reacted with the surface of the chip according to the same procedure.
The surface of the chip was exposed for 330 seconds to the reagent buffer solution in order to track its binding. The surface of the chip was then regenerated by injecting a regeneration buffer (20 μL). The data of the control lane were subtracted from raw data of the lane corresponding to the immobilized reagent peptides.

SMILES strings stand for the structures. Where a SMILES comes first, the peptide text is derived from it.

T1 sequence (P05067 with tags, fused parts or gaps limits assumed): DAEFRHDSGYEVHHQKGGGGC

In assay [1], `CC(=O)N[C@@H](Cc1c[nH]cn1)C(=O)N[C@@H](C)C(=O)N[C@@H](CC(=O)O)C(=O)N[C@@H](CC(=O)O)C(N)=O` [SEQ. ID. NO. 1, HADD] (Ac-HADD-NH2) showed a dissociation rate constant (koff) of 0.0104 ± 2e-05 s⁻¹ and an association rate constant (kon) of 3.2 ± 0.08 M⁻¹ s⁻¹.

Turning to `CC(=O)N[C@@H](CC(=O)O)C(=O)N[C@@H](CC(=O)O)C(=O)N[C@@H](C)C(=O)N[C@@H](CCCCN)C(N)=O` [SEQ. ID. NO. 4, DDAK] (Ac-DDAK-NH2), in assay [1], the off-rate constant (koff) is 0.0062 ± 0.0001 s⁻¹, the kon is 4.57 ± 0.09 M⁻¹ s⁻¹ and the Kd is 1000 to 10000 µM.

In assay [1], `CC(=O)N[C@@H](CCCNC(=N)N)C(=O)N[C@@H](C)C(=O)N[C@@H](CC(=O)O)C(=O)N[C@@H](CC(=O)O)C(N)=O` [SEQ. ID. NO. 5, Ac-RADD-NH2] (Ac-RADD-NH2) yielded a koff of 0.00024 ± 4e-05 s⁻¹ and a kon of 18.5 M⁻¹ s⁻¹. In addition, on Aβ peptide (1-40), the IC50 is 20 µM and the “effect of prolonged incubation on amyloid aggregates” value is recorded as “irreversible disaggregation”.

As for `CC(=O)N[C@@H](CCCCN)C(=O)N[C@@H](C)C(=O)N[C@@H](CCC(=O)O)C(=O)N[C@@H](CC(=O)O)C(N)=O` [SEQ. ID. NO. 9, KAED] (Ac-KAED-NH2), in assay [1], the koff was found to be 0.019 ± 0.001 s⁻¹, the kon worked out at 5.7 ± 0.9 M⁻¹ s⁻¹ and the Kd fell in the range of 1000 to 10000 µM.

Consider `CC(=O)N[C@@H](CC(=O)O)C(=O)N[C@@H](CCC(=O)O)C(=O)N[C@@H](C)C(=O)N[C@@H](CCCNC(=N)N)C(N)=O` [SEQ. ID. NO. 12, DEAR] (Ac-DEAR-NH2), for which, in assay [1], the koff was 0.00709 ± 9e-05 s⁻¹, the on-rate constant (kon) turned out to be 3.58 ± 0.08 M⁻¹ s⁻¹ and the Kd lay in the range of 1000 to 10000 µM.

On to `CC(=O)N[C@@H](CCCCN)C(=O)N[C@@H](C)C(=O)N[C@@H](CC(=O)O)C(=O)N[C@@H](CCC(=O)O)C(N)=O` [SEQ. ID. NO. 15, KADE] (Ac-KADE-NH2), for which, in assay [1], the koff stood at 0.0096 ± 0.0002 s⁻¹, the on-rate constant (kon) stood at 2.2 ± 0.1 M⁻¹ s⁻¹ and the dissociation constant Kd was in the range of 1000 to 10000 µM.

In assay [1], `CC(=O)N[C@@H](Cc1c[nH]cn1)C(=O)N[C@@H](C)C(=O)N[C@@H](CCC(=O)O)C(=O)N[C@@H](CCC(=O)O)C(N)=O` [SEQ. ID. NO. 19, Ac-HAEE-NH2] (Ac-HAEE-NH2) gave an off-rate (koff) of 3.5e-05 ± 8e-06 s⁻¹ and an on-rate constant (kon) of 0.37 ± 0.05 M⁻¹ s⁻¹. In addition, on Aβ peptide (1-40), the IC50 worked out at 20 µM and the “effect of prolonged incubation on amyloid aggregates” value was “irreversible disaggregation”. For the same compound, the Kd in assay [2] (BIACORE 3000, peptides with Ra=Ac, Rb=NH2, 98% L isomers, read-out: dissociation constant Kd) was determined as 0.022 µM. Further, in assay [2] (Zn(II) 10 mM), the “interactions of the ligand with the reagent at high concentrations of Zn(II) ions” value is reported as “suppressed the interactions”. In assay [2] (Zn(II) 100-400 μM), the “dissociation constant in the presence of physiological concentrations of Zn(II) ions” value is “practically unchanged”. Also, in assay [2] (Zn(II) of the order of 1 millimolar (mM)), the “interactions with the 1-16 domain of Aβ at higher concentrations of Zn(II) ions” value is reported as “suppress the interactions”. Further, in assay [2] (physiological Zn(II), micromolar levels (less than 500 μM)), the “binding to the 1-16 domain of the amyloid-β in the presence or absence of Zn(II) ions” value is recorded as “practically not altered”.

As to `CC(=O)N[C@@H](CCCNC(=N)N)C(=O)N[C@@H](C)C(=O)N[C@@H](CCC(=O)O)C(=O)N[C@@H](CCC(=O)O)C(N)=O` [SEQ. ID. NO. 23, RAEE] (Ac-RAEE-NH2), in assay [1], the dissociation rate constant (koff) was determined as 0.0112 ± 8e-05 s⁻¹, the kon is 1.5 ± 0.1 M⁻¹ s⁻¹ and the dissociation constant (Kd) was in the range of 1000 to 10000 µM.

The record behind these values is US9334303B2, “Peptide compound useful for inhibiting amyloid plaque formation” (KIMONELLA VENTURES LTD., priority 2010, dated 2016).
